Source: patent US10487078B2, “Compositions and methods of targeting mutant K-RAS” (NantBio, Inc., priority 2015, dated 2019)
Like-named read-outs stand apart in the source and are kept apart here.

Legend:
K-ras G12V (GTP) = K-ras G12V (GTP) (Homo sapiens, UniProt P01116, G12V); experiment: SPR assay (surface plasmon resonance); format: binding; details: 25° C., 8% DMSO
Procedure: (§1) Selected compounds were also tested for selective binding to wild type and mutant forms of K-ras in the active and non-active state using surface plasmon resonance, and exemplary results are shown in Table 4.
(§2) The running buffer in all surface plasmon resonance experiments was 10 mM HEPES pH 7.4, 150 mM NaCl, 0.1% (v/v) Tween-20, 1 mM MgCl2, 8% DMSO. Experiments were carried out on the SensiQ Pioneer optical biosensor. The flow rate was set at 50 μL/min and the temperature was 25° C. kRAS protein was immobilized to the Nickel-NTA charged surface of the SensiQ HisCap chip (sensiqtech.com) giving a yield of 4000 RU. Small molecules were prepared in 100% DMSO and further diluted to 8% DMSO in running buffer. The small molecules were injected using the Taylor diffusion gradient injection mode (OneStep®, see e.g., Evaluation of Taylor dispersion injections: Determining kinetic/affinity interaction constants and diffusion coefficients in label-free biosensing, John G. Quinn, Analytical Biochemistry (2011)). Buffer blanks were injected for double referencing purposes. Data processing and model fitting were performed using Qdat.

K-ras G12D (GTP) = K-ras G12D (GTP) (Homo sapiens, UniProt P01116, G12D); experiment: SPR assay (surface plasmon resonance); format: binding; details: 25° C., 8% DMSO
Procedure: as §1, §2

K-ras G12D = K-ras G12D (Homo sapiens, UniProt P01116, G12D); experiment: G-LISA Ras activation assay, 293H cells transfected with G12D mutant; format: cell-based; details: 1 hour treatment
Procedure: (§3) 293H cells were seeded in 6-wells at 0.6×10^6 cells per well and transfected next day with 5 μg of Ras wild-type, or G12C, G12D or G12V mutant DNA plasmid vector using transfection reagent Lipofectamine 3000. Next day cells were treated with 3.125-50 μM of Ras compounds for 1 hour. Wild-type transfected cells were subsequently treated with 100 ng/ml EGF for 2 minutes. Cells were washed once in ice-cold PBS, lysed in complete lysis buffer on ice, and processed by G-LISA according to Cytoskeleton protocol.
(§4) In-cell selectivity of the compounds presented herein against a specific K-ras mutant form can also be tested as shown in the following exemplary experiment. 293H cells were seeded in 6-wells and transfected next day with 5 μg of Ras wild-type, or G12C, G12D or G12V mutant DNA plasmid vector. Next day cells were treated with 3.125-50 μM of Ras compounds for 1 hour. Wild-type transfected cells were subsequently treated with 100 ng/ml EGF for 2 minutes. Cells were washed once in ice-cold PBS, lysed in complete lysis buffer on ice, and processed by G-LISA according to Cytoskeleton protocol. FIG. 1 depicts exemplary results.
as §3, with “In still further experiments, the inventors tested selected compounds in a G-LISA assay to compare IC50 values for wild-type and various mutant K-Ras (G12D, G12V) using the following general protocol: 293H” for “293H”

[1] = system: Akt phosphorylation in Panc1 (G12D) cells; experiment: In-Cell Western Akt phosphorylation; format: cell-based; details: EC50, one hour treatment; read-out: In-Cell Western Akt phosporylation Panc1 (G12D)
Procedure: (§5) In-cell phosphorylation assays for Erk and Akt were performed on various of the compounds and exemplary results are shown in Table 3 below using […] and Panc10.05 cell lines for G12D K-ras mutants.
(§6) Cells are seeded in complete medium into black sided, clear-bottom 384-well microplates at 3000 cells/[…]/well. Plates are returned to 37° C. CO2 incubator for 18 hr. Drug is made as 200× in DMSO and diluted into medium to 10×. To each well is added 4 ul 10× test article or controls, and plates are returned to the incubator. Final assay DMSO concentration is 0.5%. After one hour, cells are fixed in formaldehyde, rinsed & permeabilized with triton X-100, and blocked with BSA/Goat serum blocking solution. Primary phospho-Akt and phospho-ERK antibodies are added and plates are incubated overnight at 4° C. Plates are rinsed with Tween-20 wash buffer and secondary antibody (Goat anti-rabbit, Thermofisher) is added. After 2 hours, plates are rinsed in Tween-20 wash buffer, and then PBS. Plates are imaged on the Celigo (Nexcelom) and cellular fluorescence is quantitated. Full inhibition of phospho-Akt is achieved with 1 uM BEZ235 (Sellekchem), while full inhibition of phospho-ERK is achieved with 1 uM MEK Inhibitor II Calbiochem). EC50 values are calculated using Graphpad Prism.

[2] = system: Akt phosphorylation in Panc10.05 (G12D) cells; experiment: In-Cell Western Akt phosphorylation; format: cell-based; details: EC50, one hour treatment; read-out: In-Cell Western Akt phosporylation Panc10.05 (G12D)
Procedure: as §5, §6

HCT116 (G13D) cells = experiment: 72 hr cell viability (CellTiterBlue); format: cell-based; details: GI50, 72 hr
Procedure: (§7) Viability assays were performed on exemplary compounds and Table 2 below lists exemplary results for selected compounds tested on wild type (Ishikawa) and various K-ras mutants (Panc1-G12D; Panc10.05-G12D; HCT116-G13D).
(§8) Cells are counted and seeded at 1000 cells/36 ul medium/well into 384-well microplates. Cells are returned to 37° C. CO2 incubator for 18 hr. Drug is made as 200× in DMSO and diluted into medium to 10×. To each well is added 4 ul 10× drug, and plates are returned to the incubator. Final assay DMSO concentration is 0.5%. After 72 hr, 8 ul CellTiterBlue (Promega) is added to each well. After 3 hr, fluorescence (Ex550/Em590) is determined on the Victor Plate Reader (Perkin Elmer). Assay range is determined by DMSO control (100% viability) and 100 uM tamoxifen (0% viability). GI50 values are calculated using Graphpad Prism.

Panc10.05 (G12D) cells = experiment: 72 hr cell viability (CellTiterBlue); format: cell-based; details: GI50, 72 hr
Procedure: as §7, §8

Panc1 (G12D) cells = experiment: 72 hr cell viability (CellTiterBlue); format: cell-based; details: GI50, 72 hr
Procedure: as §7, §8

[3] = system: Ishikawa (K-Ras wild-type) cells; experiment: 72 hr cell viability (CellTiterBlue); format: cell-based; details: GI50, 72 hr
Procedure: as §7, §8

[4] = system: Erk phosphorylation in Panc10.05 (G12D) cells; experiment: In-Cell Western Erk phosphorylation; format: cell-based; details: EC50, one hour treatment; read-out: In-Cell Western Erk phosporylation Panc10.05 (G12D)
Procedure: as §5, §6

[5] = system: Erk phosphorylation in Panc1 (G12D) cells; experiment: In-Cell Western Erk phosphorylation; format: cell-based; details: EC50, one hour treatment; read-out: In-Cell Western Erk phosporylation Panc1 (G12D)
Procedure: as §5, §6

K-Ras wild-type = K-Ras wild-type (Homo sapiens, UniProt P01116); experiment: G-LISA Ras activation assay, 293H cells transfected with Ras wild-type, EGF-stimulated; format: cell-based; details: 1 hour treatment, 100 ng/ml EGF
Procedure: as §3, §4
as §3, with “In still further experiments, the inventors tested selected compounds in a G-LISA assay to compare IC50 values for wild-type and various mutant K-Ras (G12D, G12V) using the following general protocol: 293H” for “293H”

K-ras G12V = K-ras G12V (Homo sapiens, UniProt P01116, G12V); experiment: G-LISA Ras activation assay, 293H cells transfected with G12V mutant; format: cell-based; details: 1 hour treatment
Procedure: as §3, §4
as §3, with “In still further experiments, the inventors tested selected compounds in a G-LISA assay to compare IC50 values for wild-type and various mutant K-Ras (G12D, G12V) using the following general protocol: 293H” for “293H”

K-ras wild-type (GTP) = K-ras wild-type (GTP) (Homo sapiens, UniProt P01116); experiment: SPR assay (surface plasmon resonance); format: binding; details: 25° C., 8% DMSO
Procedure: as §1, §2

[6] = Table 1, G-LISA, 293H transfected, read-out: IC50 (μM) G12D
[7] = Table 5, IC50, 293H transfected, read-out: G-LISA (G12D)
[8] = Table 1, G-LISA, 293H transfected, read-out: IC50 (μM) Wild-type
[9] = Table 5, IC50, 293H transfected, read-out: G-LISA (wild type)
[10] = Table 1, G-LISA, 293H transfected, read-out: IC50 (μM) G12V

Row | Kd (K-ras G12V (GTP)) | SPR Assay G12V (GTP) Rmax (K-ras G12V (GTP)) | Kd (K-ras G12D (GTP)) | SPR Assay G12D (GTP) Rmax (K-ras G12D (GTP)) | IC50 (K-ras G12D; [6]) | IC50 (K-ras G12D; [7]) | Kd (K-ras wild-type (GTP)) | SPR Assay Wild-type (GTP) Rmax (K-ras wild-type (GTP)) | Structure (SMILES) | EC50 [1] | EC50 [2] | IC50 (HCT116 (G13D) cells) | IC50 (Panc10.05 (G12D) cells) | IC50 (Panc1 (G12D) cells) | IC50 [3] | EC50 [4] | EC50 [5] | IC50 (K-Ras wild-type; [8]) | IC50 (K-Ras wild-type; [9]) | IC50 (K-ras G12V; [10]) | IC50 (K-ras G12V; Table 5, IC50, 293H transfected, read-out: G-LISA (G12V))
1 | 36.8 µM | Rmax = 143 ± 1 | 4.8 µM | Rmax = 8.73 | > 25 µM | > 25 µM |  |  | Cc1nc(C)c(C(=O)Nc2nc(-c3ccc4c(c3)CCC(=O)O4)cs2)s1 [Compound 4664] |  |  |  |  |  |  |  |  |  |  |  | 
2 |  |  |  |  |  |  |  |  | COCCOc1nc(C)c(C(=O)Nc2nc(-c3ccc4c(c3)CCC(=O)N4)cs2)s1 [Compound 4896] | 14 µM | 12 µM | 22 µM | ≥ 25 µM | ≥ 25 µM | 19 µM | 8 µM | 8 µM |  |  |  | 
3 |  |  |  |  |  |  |  |  | Cc1nc(-n2ccnc2)sc1C(=O)Nc1nc(-c2ccc3c(c2)CCC(=O)N3)cs1 [Compound 4894] | > 25 µM | > 25 µM | ≥ 25 µM | ≥ 25 µM | ≥ 25 µM | ≥ 25 µM | > 25 µM | > 25 µM |  |  |  | 
4 |  |  |  |  |  |  |  |  | Cc1nc(C)c(C(=O)N(Cc2ccccc2)c2nc(-c3ccc4c(c3)CCC(=O)N4Cc3ccccc3)cs2)s1 [Compound 4889] | > 25 µM | > 25 µM | 21 µM | ≥ 25 µM | ≥ 25 µM | 14 µM | > 25 µM | > 25 µM |  |  |  | 
5 | 15.2 µM | Rmax = 57.1 ± 0.2 | 27.2 µM | Rmax = 389 ± 1 | > 25 µM | > 25 µM |  |  | O=C1CCc2cc(-c3csc(NC(=O)c4scnc4-c4ccccc4)n3)ccc2N1 [Compound 4800] |  |  |  |  |  |  |  |  |  |  |  | 
6 | 12.1 µM | Rmax = 100.3 ± 0.2 | 570 µM | Rmax = 219 ± 5 | > 25 µM | 187 µM |  |  | Cc1nc(C)c(C(=O)Nc2nc(-c3ccc4c(c3)CCC(=O)N4)cs2)[nH]1 [Compound 4805] |  |  |  |  |  |  |  |  |  | 7 µM |  | 
7 |  |  |  |  | > 25 µM | > 25 µM | 6.4 µM | Rmax = 14.6 ± 0.1 | Cc1nc(C)c(C(=O)Nc2nc(-c3ccc4c(c3)CC(=O)N4)cs2)s1 [Compound 4639] |  |  |  |  |  |  |  |  |  |  |  | 
8 |  |  |  |  |  |  |  |  | Cc1nc(N2CCOCC2)sc1C(=O)Nc1nc(-c2ccc3c(c2)CCC(=O)N3)cs1 [Compound 4895] | > 25 µM | > 25 µM | ≥ 25 µM | ≥ 25 µM | ≥ 25 µM | ≥ 25 µM | > 25 µM | > 25 µM |  |  |  | 

Row | Structure (SMILES) | Kd (K-ras G12V (GTP)) | SPR Assay G12V (GTP) Rmax (K-ras G12V (GTP)) | Kd (K-ras G12D (GTP)) | SPR Assay G12D (GTP) Rmax (K-ras G12D (GTP)) | IC50 (K-ras G12D; [6]) | IC50 (K-ras G12D; [7]) | Kd (K-ras wild-type (GTP)) | SPR Assay Wild-type (GTP) Rmax (K-ras wild-type (GTP)) | EC50 [1] | EC50 [2] | IC50 (HCT116 (G13D) cells) | IC50 (Panc10.05 (G12D) cells) | IC50 (Panc1 (G12D) cells) | IC50 [3] | EC50 [4] | EC50 [5] | IC50 (K-Ras wild-type; [8]) | IC50 (K-Ras wild-type; [9]) | IC50 (K-ras G12V; [10]) | IC50 (K-ras G12V; Table 5, IC50, 293H transfected, read-out: G-LISA (G12V))
9 | Cc1nc(C2CCOC2)sc1C(=O)Nc1nc(-c2ccc3c(c2)CCC(=O)N3)cs1 (centres unmarked) [Compound 4892] |  |  |  |  | 6.5 µM |  |  |  | 12 µM | 6 µM | 14 µM | 6 µM | 17 µM | 14 µM | 2 µM | 5 µM |  |  |  | 
10 | Cc1nc(C)c(C(=O)Nc2nc(-c3ccc4c(c3)CCC(=O)N4Cc3ccccc3)cs2)s1 [Compound 4888] |  |  |  |  | 6 µM | 6 µM |  |  | 5 µM | 3 µM | 7 µM | 4 µM | 9 µM | 5 µM | 2 µM | 4 µM | 11.3 µM | 11.3 µM | 14.5 µM | 14.5 µM
11 | CCc1nc(C)c(C(=O)Nc2nc(-c3ccc4c(c3)CCC(=O)N4)cs2)s1 [Compound 4891] |  |  |  |  | 5 µM |  |  |  | 7 µM | 3 µM | 13 µM | 4 µM | 11 µM | 12 µM | 2 µM | 2 µM | 11.5 µM |  | 9.3 µM | 
